From patent US20120040378A1, “Meprobromate Immunoassay” (RANDOX LABORATORIES LIMITED, priority 2010, published 2012)
In brackets after ≈: the same amount, converted by molar mass.

Columns and labels:
[1] = test system: Ig fractions of the antisera raised to Immunogen 4; assay: Competitive ELISA with antibodies raised to Immunogen 4 (Randox immunoassay of the invention); format: binding, sheep; details: for % CR: based on 100% specificity to meprobamate; for CR (cross-reactivity): relative to meprobamate = 100%
Procedure: An aqueous solution of Immunogen 4 was formulated with Freund's Complete Adjuvant (FCA) to form an emulsion consisting of 2 mg/ml immunogen in 50% (v/v) FCA. Three sheep were immunised with this emulsion (1° immunisation), 0.25 ml being intramuscularly injected at each of four sites in the rump of each animal. Subsequent immunizations (boosts) contained 1 mg/ml immunogen. All boosts were emulsified in 50% (v/v) Freund's Incomplete Adjuvant (FIA) and were administered in the same manner as the 1° immunisation, at monthly intervals for 1 year. Blood sampling took place 7 to 14 days after each boost. Each sample was processed to produce antiserum, which was further purified by caprylic acid and ammonium sulfate precipitation to yield an immunoglobulin (Ig) fraction. The Ig fraction was evaluated by competitive ELISA microtiter plate assay, as described in Example 16.
The wells of an enhanced binding 96 well polystyrene microtiter plate were coated with a mixture of the Ig fractions of the antisera raised to Immunogen 4, diluted in 10 mM Tris, pH8.5 (125 μl/well). The appropriate antibody coating dilution was determined using standard ELISA checkerboard techniques. The plate was incubated for 2 hours at 37° C., washed 4 times with Tris buffered saline containing Tween 20 (TBST) and tapped dry. Standard solutions of meprobamate, carisoprodol and mebutamate were prepared in TBST at 0, 0.1, 1.0, 5, 10, 25, 50 and 100 ng/ml, and 50 μl of each was added to the appropriate wells.
The conjugate prepared in Example 14 diluted in Tris buffer (pH 7.2) containing EDTA, D-mannitol, sucrose, thimerosal and BSA, was added to each of the wells. The appropriate dilution of conjugate was also determined using standard ELISA checkerboard techniques. The plate was incubated at 25° C. for 1 hour. Excess unbound conjugate was removed by washing 6 times over a 10 minute period with TBST. 125 μl of tetramethylbenzidine (TMB) substrate solution was added to each well of the plate that was then incubated for 20 minutes in the dark at room temperature. The reaction was terminated by addition of 125 μl 0.2M H2SO4 to each well. The absorbance was then measured at 450 nm using a microtiter plate reader.

[2] = test system: carisoprodol-specific antibody raised from Immunogen 2; assay: Immunoassay with carisoprodol-specific antibody raised from Immunogen 2 (Table 1); format: binding; details: Table 1, antibody raised from Immunogen 2 as titled
[3] = test system: Immunalysis immunoassay antibody; details: Table 2, Immunalysis; data from Robertson and Marinetti, 2003; cited from earlier work
IDS immunoassay antibody = details: Table 2, IDS commercial immunoassay; cited from earlier work
[4] = cited from earlier work
[5] = Table 2, Randox immunoassay, concentration producing 50% B/B0
[6] = competitive ELISA, Hapten-B-HRP conjugate, absorbance 450 nm, standard concentration producing 50% B/B0

| Structure (SMILES) | % CR ([1]; Table 2, Randox immunoassay) [%] | IC50 [1, 5] [µg/mL] | IC50 [1, 6] [µg/mL] | CR (cross-reactivity) ([1]; competitive ELISA) [%] | % CR [2] [%] | IC50 [2] [µg/mL] | % CR [3] [%] | IC50 [3] [µg/mL] | % CR (IDS immunoassay antibody) [%] | IC50 (IDS immunoassay antibody) [µg/mL] | plasma half-life ([4]; plasma) [h] | excreted unchanged in the urine ([4]; urine) | serum half-life ([4]; serum) | time detectable in serum ([4]; serum, not detectable beyond this time (Olsen et al 1994)) [h] | excreted unchanged in urine ([4]; single orally administered carisoprodol tablet (350 mg)) |
| --- | --- | --- | --- | --- | --- | --- | --- | --- | --- | --- | --- | --- | --- | --- | --- |
| CCCC(C)(COC(N)=O)COC(N)=O [meprobamate] | 100 | 0.008 | 0.00864 | 100 | 100 | 0.008 (≈ 0.0367 µM) | 19 | 0.132 (≈ 0.605 µM) | <0.01 | >6 | 6 to 16 | 10-12% | – | – | – |
| CCCC(C)(COC(N)=O)COC(=O)NC(C)C (centres unmarked) [carisoprodol] | 57 | 0.015 | 0.01515 | 57 | 57 | 0.015 (≈ 0.0576 µM) | 100 | 0.025 (≈ 0.096 µM) | 100 | 0.0006 (≈ 0.0023 µM) | – | – | under 2 hours | ≤ 12 | less than 1% |
| CCC(C)C(C)(COC(N)=O)COC(N)=O (centres unmarked) [mebutamate] | – | – | – | 7 | – | – | – | – | – | – | – | – | – | – | – |
